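Protocol summary: plate cells (96-well), add compound at 5 concentrations, incubate 48 h, interpolate endpoints linearly. Abbreviation: GI50, concentration required for 50% inhibition of growth. The concentration for full growth arrest is given as TGI.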
What was measured:
Assay in all cases: DTP human tumour cell line panel, 48 h
HCC-2998 colon = test system: HCC-2998 colon
KM12 colon = test system: KM12 colon
LOX IMVI melanoma = test system: LOX IMVI melanoma
MCF7 breast = test system: MCF7 breast
MDA-MB-435 = test system: MDA-MB-435
MOLT-4 leukemia = test system: MOLT-4 leukemia
NCI-H226 lung = test system: NCI-H226 lung
NCI-H23 lung = test system: NCI-H23 lung
SF-295 CNS = test system: SF-295 CNS
SF-539 CNS = test system: SF-539 CNS
SNB-19 CNS = test system: SNB-19 CNS
SNB-75 CNS = test system: SNB-75 CNS
TK-10 renal = test system: TK-10 renal
UACC-257 melanoma = test system: UACC-257 melanoma

SMILES	TGI (HCC-2998 colon) [µM]	TGI (KM12 colon) [µM]	TGI (LOX IMVI melanoma) [µM]	TGI (MCF7 breast) [µM]	TGI (MDA-MB-435) [µM]	TGI (MOLT-4 leukemia) [µM]	TGI (NCI-H226 lung) [µM]	TGI (NCI-H23 lung) [µM]	TGI (SF-295 CNS) [µM]	TGI (SF-539 CNS) [µM]	TGI (SNB-19 CNS) [µM]	TGI (SNB-75 CNS) [µM]	TGI (TK-10 renal) [µM]	TGI (UACC-257 melanoma) [µM]	GI50 (MDA-MB-435) [nM]	GI50 (SF-539 CNS) [nM]
NC(N)=N/N=C/c1c(-c2cccc([N+](=O)[O-])c2)nc2n1CCS2	48	68.5	73.1	36.1	55.3	29.8	39	58.9	54.6	43.7	32.1	25.1	47.4	36.1	–	–
Cc1ccc(-c2c3nc(c(-c4ccc(C)cc4)c4ccc([nH]4)c(-c4ccc(OCC5COC(C)(C)O5)cc4)c4nc(c(-c5ccc(C)cc5)c5ccc2[nH]5)C=C4)C=C3)cc1 (centres undefined)	> 31.6	> 31.6	> 31.6	> 31.6	> 31.6	> 31.6	> 31.6	> 31.6	> 31.6	> 31.6	> 31.6	> 31.6	> 31.6	> 31.6	–	–
COC(=O)CCc1cc(O)c2c(c1)C(C(=O)OC)C(c1ccc(O)c(O)c1)O2 (centres undefined)	39.8	> 46.5	> 100	> 100	4.67	> 88.8	> 75	> 100	97	32.9	> 100	8.41	> 100	> 100	–	–
CNc1nc2n(CCO)c(-c3ccccc3)c(-c3ccccc3)nc-2c(=O)n1	> 50	> 50	> 50	> 50	> 50	> 50	> 50	> 50	> 50	> 50	> 50	> 50	> 50	> 50	–	–
CCn1c(SCC(=O)NNC(=S)Nc2ccc(C)cc2)nc2ccccc2c1=O	> 100	> 100	> 100	> 100	> 100	> 100	> 100	> 100	> 100	> 100	> 100	> 100	> 100	> 100	–	–
O=c1oc2cc(O)ccc2c(O)c1C(c1ccccc1F)c1c(O)c2ccc(O)cc2oc1=O	> 100	> 100	> 100	> 100	> 100	> 100	> 100	> 100	> 100	> 100	> 100	> 100	> 100	> 100	–	–
CN(C)/C=N/S(=O)(=O)c1nn2c(C=O)c(-c3ccc(Cl)cc3)nc2s1	9.75	17.6	2.85	2.68	7.92	2.68	9.86	9.81	28.2	5.21	28.8	24.3	2.88	9.83	–	–
Cc1ccc(NC(=S)N/N=C(/c2ccccc2)c2ccccn2)cc1	21	13.4	14.9	15.7	14.7	> 12.3	2.07	26.7	12.7	10.3	22.2	5.16	2.44	1.9	–	–
CC1(C)CC(=O)C(/C=N/c2nc(-c3ccccc3)cs2)=C(O)C1	> 100	> 100	> 100	> 100	73.6	> 100	> 100	> 100	> 100	64.7	> 100	> 100	> 100	> 100	–	–
COC1(OC)CC(CO)(CNc2nc(N)nc(Cl)c2/C=N\O)C1	> 100	24.4	> 100	> 100	> 100	85.4	> 100	> 100	> 100	> 100	> 100	> 100	> 100	> 100	–	–
CC(=NNC(=S)Nc1ccc(C)cc1)c1cccc(C(C)=NNC(=S)Nc2ccc(C)cc2)n1	> 100	> 100	91.7	> 100	> 100	22.9	73.6	> 100	71.7	28.1	> 100	85	> 100	69.7	–	–
CC(=O)OC1(C)C=CC(=O)C=C1	> 100	> 100	> 100	> 100	> 100	> 100	73	75.2	> 100	> 100	> 100	> 100	49.8	34.4	–	–
CCNc1cc2c(cc1O)CC[C@@H]1[C@@H]2CC[C@]2(C)[C@@H](O)CC[C@@H]12	7.33	22.4	20.3	25	0.712	46.7	21.6	28.7	13.3	15.5	> 46.1	11.4	34	25	51.5	741

Source: PubChem BioAssay (NCI)
